This is an account of results in patent publication US11691949B2, “Quinoline sulfonamide compounds and their use as antibacterial agents” (OTAGO INNOVATION LIMITED, priority 2017, dated 2023).

The structures appear in SMILES notation. Values after ≈ are worked out from the molar mass of the structure shown. Where two headings read alike, the source gives them in different places.

Common to all, as to format: cell-based
Experiment [1] concerns S. uberis ATCC 19436. In words: MIC by broth microdilution, S. uberis. The note with it: Streptococcus uberis. The procedure: (§1) Antibacterial susceptibility testing was performed in triplicate (biological) by measuring minimum inhibitory concentrations (MICs) by broth microdilution in 96-well flat bottom microtiter plates (ThermoFisher Scientific, New Zealand). S. uberis ATCC 19436, S. aureus ATCC 6538, or E. coli ATCC 10596 cells grown overnight were diluted to an OD600 of approximately 0.025, so that the final concentration of cells in the MIC assay was approximately 5×10^5 cfu/mL in media as follows: S. uberis; Todd Hewitt Broth (THB), S. aureus; Tryptic Soy Broth (TSB) and Cation Adjusted Muller Hinton Broth (CAMHB), and E. coli; Lysogeny Borth (LB) and CAMHB, before being dispensed into microtiter wells. As required additional sterile Zinc Sulphate (Heptahydrate) was supplemented into the media, so the final concentration was 50 μM. Test compounds were added to starting wells and two-fold serial dilutions were undertaken to generate a range of inhibitor concentrations at a final volume of 200 μl. Media and test compound-free (untreated) controls were included in each microtiter plate in triplicate. After 24 h incubation at 37° C. and 200 rpm, the OD600 of wells were read using a Varioskan Flash plate reader (ThermoFisher Scientific, New Zealand). The MIC was reported as the lowest concentration of the test compound for which no growth occurred, as determined by OD600 readings. The minimum bactericidal concentration (MBC) was determined using the Miles-Misra drop-plate method to measure the viability of cells in response to test compound challenge.

For experiment [2], the system named is S. aureus ATCC 6538. In words: MIC by broth microdilution, S. aureus. The note with it: Staphylococcus aureus. The procedure: as §1
The test system of experiment [3] is E. coli ATCC 10596. Description: MIC by broth microdilution, E. coli. Particulars: Escherichia coli. The procedure: as §1
Setting [4] is: ATCC19436, No Zinc, read-out: S. uberis ATCC 19436 MIC.
Where [5] appears, read: ATCC19436, Zinc (50 μM), read-out: S. uberis ATCC 19436 MIC.
The mark [6] stands for this setting: ATCC6538, No Zinc, read-out: S. aureus ATCC 6538 MIC.
Where [7] appears, read: ATCC6538, Zinc (50 μM), read-out: S. aureus ATCC 6538 MIC.
[8] abbreviates: ATCC 10536 / ATCC 10596, No Zinc, read-out: E. coli ATCC 10536 MIC.
Setting [9] is: ATCC 10536 / ATCC 10596, Zinc (50 μM), read-out: E. coli ATCC 10536 MIC.

As for `CN(C)Cc1ccc2cccc(NS(=O)(=O)c3ccccc3Cl)c2n1` [ZDR190, 2-Chloro-N-(2-((dimethylamino)methyl)quinolin-8-yl)benzenesulfonamide], the MIC was 256 µg/mL (≈ 681 µM) in experiment [1] (setting [4]); 1 µg/mL (≈ 2.66 µM) in experiment [1] (setting [5]); > 256 µg/mL in experiment [2] (setting [6]); > 256 µg/mL in experiment [2] (setting [7]); > 256 µg/mL in experiment [3] (setting [8]); > 256 µg/mL in experiment [3] (setting [9]).

As to `CN(C)Cc1ccc2cccc(NS(=O)(=O)c3cccs3)c2n1` [ZDR080, N-(2-((Dimethylamino)methyl)quinolin-8-yl)thiophene-2-sulfonamide], the MIC in experiment [1] (setting [4]) is > 256 µg/mL; in experiment [1] (setting [5]), 0.25 µg/mL (≈ 0.719 µM); in experiment [2] (setting [6]) it was > 256 µg/mL; in experiment [2] (setting [7]) it was > 256 µg/mL; in experiment [3] (setting [8]) it was > 256 µg/mL; in experiment [3] (setting [9]) it was > 256 µg/mL.

`O=S(=O)(Nc1cccc2ccc(CN3CCCC3)nc12)c1ccc(C(F)(F)F)cc1` [ZDR407, N-(2-(Pyrrolidin-1-ylmethyl)quinolin-8-yl)-4-(trifluoromethyl)benzenesulfonamide]: the MIC in experiment [1] (setting [4]) amounted to 128 µg/mL (≈ 294 µM); in experiment [1] (setting [5]), 0.125 µg/mL (≈ 0.287 µM); in experiment [2] (setting [6]), 64 µg/mL (≈ 147 µM); in experiment [2] (setting [7]), 256 µg/mL (≈ 588 µM); in experiment [3] (setting [8]) it was 256 µg/mL (≈ 588 µM); in experiment [3] (setting [9]), 256 µg/mL (≈ 588 µM).

With `CN(C)Cc1ccc2cccc(NS(=O)(=O)c3ccc(SC(F)(F)F)cc3)c2n1` [ZDR330, N-(2-((Dimethylamino)methyl)quinolin-8-yl)-4-((trifluoromethyl)thio)benzenesulfonamide], the minimal inhibitory concentration (MIC) is 128 µg/mL (≈ 290 µM) in experiment [1] (setting [4]); 0.125 µg/mL (≈ 0.283 µM) in experiment [1] (setting [5]); 32 µg/mL (≈ 72.5 µM) in experiment [2] (setting [6]); 32 µg/mL (≈ 72.5 µM) in experiment [2] (setting [7]); > 256 µg/mL in experiment [3] (setting [8]); > 256 µg/mL in experiment [3] (setting [9]).

As for `CN(C)CCNC(=O)CNCc1ccc2cccc(NS(=O)(=O)c3ccc(C(F)(F)F)cc3)c2n1` [ZDR268, N-(2-(Dimethylamino)ethyl)-2-(((8-((4-(trifluoromethyl)phenyl)sulfonamido)quinolin-2-yl)methyl)amino)acetamide di-trifluoroacetate], the MIC came out at 32 µg/mL (≈ 62.8 µM) in experiment [1] (ATCC19436, read-out: S. uberis ATCC 19436 MIC, No Zinc); 16 µg/mL (≈ 31.4 µM) in experiment [1] (ATCC19436, read-out: S. uberis ATCC 19436 MIC, Zinc (50 μM)); 64 µg/mL (≈ 126 µM) in experiment [2] (ATCC6538, read-out: S. aureus ATCC 6538 MIC, No Zinc); 128 µg/mL (≈ 251 µM) in experiment [2] (ATCC6538, read-out: S. aureus ATCC 6538 MIC, Zinc (50 μM)); 64 µg/mL (≈ 126 µM) in experiment [3] (ATCC 10536 / ATCC 10596, read-out: E. coli ATCC 10536 MIC, No Zinc); 64 µg/mL (≈ 126 µM) in experiment [3] (ATCC 10536 / ATCC 10596, read-out: E. coli ATCC 10536 MIC, Zinc (50 μM)).

As for `CC(=O)c1cccc(S(=O)(=O)Nc2cccc3ccc(CN(C)C)nc23)c1` [ZDR311, 3-Acetyl-N-(2-((dimethylamino)methyl)quinolin-8-yl)benzenesulfonamide], the MIC in experiment [1] (setting [4]) is 256 µg/mL (≈ 668 µM); in experiment [1] (setting [5]), 0.0625 µg/mL (≈ 0.163 µM); in experiment [2] (setting [6]), > 256 µg/mL; in experiment [2] (setting [7]), 256 µg/mL (≈ 668 µM); in experiment [3] (setting [8]) it was > 256 µg/mL; in experiment [3] (setting [9]), > 256 µg/mL.

In the case of `CN(C)Cc1ccc2cccc(NS(=O)(=O)c3ccccc3C(F)(F)F)c2n1` [ZDR075, N-(2-((Dimethylamino)methyl)quinolin-8-yl)-2-(trifluoromethyl)benzenesulfonamide], the minimum inhibitory concentration (MIC) in experiment [1] (setting [4]) is 256 µg/mL (≈ 625 µM); in experiment [1] (setting [5]), 0.125 µg/mL (≈ 0.305 µM); in experiment [2] (setting [6]) it was > 256 µg/mL; in experiment [2] (setting [7]) it was > 256 µg/mL; in experiment [3] (setting [8]), > 256 µg/mL; in experiment [3] (setting [9]), > 256 µg/mL.

Consider `CN(C)Cc1ccc2cccc(NS(=O)(=O)c3ccc(NC(=O)OC(C)(C)C)cc3)c2n1` [ZDR333, tert-Butyl (4-(N-(2-((dimethylamino)methyl)quinolin-8-yl)sulfamoyl)phenyl)carbamate], for which the MIC was 64 µg/mL (≈ 140 µM) in experiment [1] (setting [4]); 0.125 µg/mL (≈ 0.274 µM) in experiment [1] (setting [5]); 128 µg/mL (≈ 280 µM) in experiment [2] (setting [6]); 128 µg/mL (≈ 280 µM) in experiment [2] (setting [7]); > 256 µg/mL in experiment [3] (setting [8]); > 256 µg/mL in experiment [3] (setting [9]).

Turning to `CN(C)Cc1ccc2cccc(NS(=O)(=O)C3CCOCC3)c2n1` [ZDR502, N-(2-((Dimethylamino)methyl)quinolin-8-yl)tetrahydro-2H-pyran-4-sulfonamide], the MIC in experiment [1] (setting [4]) was > 256 µg/mL; in experiment [1] (setting [5]), 0.25 µg/mL (≈ 0.715 µM); in experiment [2] (setting [6]), > 256 µg/mL; in experiment [2] (setting [7]), > 256 µg/mL; in experiment [3] (setting [8]), > 256 µg/mL; in experiment [3] (setting [9]) it was > 256 µg/mL.

Take `CCN(CC)Cc1ccc2cccc(NS(=O)(=O)c3ccc(C(F)(F)F)cc3)c2n1` [ZDR028, N-(2-((Diethylamino)methyl)quinolin-8-yl)-4-(trifluoromethyl)-benzenesulfonamide]: the MIC in experiment [1] (setting [4]) is 128 µg/mL (≈ 293 µM); in experiment [1] (setting [5]), 0.125 µg/mL (≈ 0.286 µM); in experiment [2] (setting [6]) it was 256 µg/mL (≈ 585 µM); in experiment [2] (setting [7]), > 256 µg/mL; in experiment [3] (setting [8]), > 256 µg/mL; in experiment [3] (setting [9]), > 256 µg/mL.

Regarding `C=CCS(=O)(=O)Nc1cccc2ccc(CN(C)C)nc12` [ZDR259, N-(2-((Dimethylamino)methyl)quinolin-8-yl)prop-2-ene-1-sulfonamide], the MIC was > 256 µg/mL in experiment [1] (setting [4]); 0.25 µg/mL (≈ 0.819 µM) in experiment [1] (setting [5]); > 256 µg/mL in experiment [2] (setting [6]); 256 µg/mL (≈ 838 µM) in experiment [2] (setting [7]); > 256 µg/mL in experiment [3] (setting [8]); > 256 µg/mL in experiment [3] (setting [9]).

On to `CN(C)Cc1ccc2cccc(NS(=O)(=O)c3cccc(F)c3)c2n1` [ZDR312, N-(2-((Dimethylamino)methyl)quinolin-8-yl)-3-fluorobenzenesulfonamide], for which the minimal inhibitory concentration (MIC) was 128 µg/mL (≈ 356 µM) in experiment [1] (setting [4]); 0.125 µg/mL (≈ 0.348 µM) in experiment [1] (setting [5]); 256 µg/mL (≈ 712 µM) in experiment [2] (setting [6]); 256 µg/mL (≈ 712 µM) in experiment [2] (setting [7]); > 256 µg/mL in experiment [3] (setting [8]); > 256 µg/mL in experiment [3] (setting [9]).

As for `CN(C)Cc1ccc2cccc(NS(=O)(=O)Cc3ccccc3)c2n1` [ZDR317, N-(2-((Dimethylamino)methyl)quinolin-8-yl)-1-phenylmethanesulfonamide], the MIC in experiment [1] (setting [4]) is 256 µg/mL (≈ 720 µM); in experiment [1] (setting [5]) it was 0.25 µg/mL (≈ 0.703 µM); in experiment [2] (setting [6]), > 256 µg/mL; in experiment [2] (setting [7]), 128 µg/mL (≈ 360 µM); in experiment [3] (setting [8]), > 256 µg/mL; in experiment [3] (setting [9]), > 256 µg/mL.

Take `O=S(=O)(Nc1cccc2ccc(CN(Cc3ccccn3)Cc3ccccn3)nc12)c1ccc(C(F)(F)F)cc1` [ZDR096, N-(2-((Bis(pyridin-2-ylmethyl)amino)methyl)quinolin-8-yl)-4-(trifluoromethyl)benzenesulfonamide]: the MIC is 64 µg/mL (≈ 114 µM) in experiment [1] (setting [4]); 4 µg/mL (≈ 7.1 µM) in experiment [1] (setting [5]); > 256 µg/mL in experiment [2] (setting [6]); > 256 µg/mL in experiment [2] (setting [7]); > 256 µg/mL in experiment [3] (setting [8]); > 256 µg/mL in experiment [3] (setting [9]).

For `CN(C)Cc1ccc2cccc(NS(=O)(=O)c3cccc(S(N)(=O)=O)c3)c2n1` [ZDR155, N-(2-((Dimethylamino)methyl)quinolin-8-yl)benzene-1,3-disulfonamide], the MIC in experiment [1] (setting [4]), in experiment [1] (setting [5]), in experiment [2] (setting [6]), in experiment [2] (setting [7]), in experiment [3] (setting [8]) and in experiment [3] (setting [9]) was > 256 µg/mL in each case.

Take `CN(C)Cc1ccc2cccc(NS(=O)(=O)N3CCCCC3)c2n1` [ZDR193, N-(2-((Dimethylamino)methyl)quinolin-8-yl)piperidine-1-sulfonamide]: the MIC in experiment [1] (setting [4]) is 128 µg/mL (≈ 367 µM); in experiment [1] (setting [5]), 0.25 µg/mL (≈ 0.717 µM); in experiment [2] (setting [6]) it was > 256 µg/mL; in experiment [2] (setting [7]), > 256 µg/mL; in experiment [3] (setting [8]), > 256 µg/mL; in experiment [3] (setting [9]), > 256 µg/mL.

`O=C(N/N=C/c1ccc2cccc(NS(=O)(=O)c3ccc(C(F)(F)F)cc3)c2n1)c1ccccc1` [ZDR045, (E)-N-(2-((2-Benzoylhydrazono)methyl)quinolin-8-yl)-4-(trifluoromethyl)benzenesulfonamide]: the MIC in experiment [1] (setting [4]) is > 256 µg/mL; in experiment [1] (setting [5]), 0.125 µg/mL (≈ 0.251 µM); in experiment [2] (setting [6]) it was > 256 µg/mL; in experiment [2] (setting [7]) it was > 256 µg/mL; in experiment [3] (setting [8]), > 256 µg/mL; in experiment [3] (setting [9]), > 256 µg/mL.

For the compound `Cc1ccc(S(=O)(=O)Nc2cccc3ccc(CN(C)C)nc23)cc1` [ZDR062, N-(2-((Dimethylamino)methyl)quinolin-8-yl)-4-methylbenzenesulfonamide], the MIC in experiment [1] (setting [4]) was 256 µg/mL (≈ 720 µM); in experiment [1] (setting [5]), 0.25 µg/mL (≈ 0.703 µM); in experiment [2] (setting [6]), 256 µg/mL (≈ 720 µM); in experiment [2] (setting [7]), > 256 µg/mL; in experiment [3] (setting [8]), > 256 µg/mL; in experiment [3] (setting [9]), > 256 µg/mL.
